Columns and labels:
Sphaerotheca fuliginea = test: Protective application against powdery mildew on cucumber leaves; type: in vivo; conditions: 63 ppm, sprayed to runoff on cucumber seedlings 'Chinese Snake'; inoculated 20 hours after drying; assessed visually after 7 days; untreated plants 100% infected
Experimental: The active compounds were prepared separately or together as a stock solution with 0.25% by weight of active compound in acetone or DMSO. 1% by weight of the emulsifier Uniperol® EL (wetting agent with an emulsifying and dispersing action based on ethoxylated alkylphenols) was added to this solution and appropriately diluted with water to the desired concentration. Use example 1—Activity in protective application against powdery mildew on cucumber leaves caused by Sphaerotheca fuliginea Leaves of pot-grown cucumber seedlings of the variety “Chinese Snake” in the cotyledon stage were sprayed to runoff point with an aqueous suspension in the active compound concentration given below. 20 hours after the spray coating had dried on, the plants were inoculated with an aqueous suspension of spores of powdery mildew of cucumber (Sphaerotheca fuliginea). The plants were subsequently cultivated for 7 days in a greenhouse at temperatures of between. 20 and 24° C. and a relative atmospheric humidity of 60 to 80%. The extent of mildew development was then determined visually in % of infection of the cotyledon area.

Pyrenophora teres = test: 1 day protective application against net blotch of barley; type: in vivo; conditions: 63 ppm, sprayed to runoff on barley seedlings; inoculated 24 hours after drying; assessed visually after 6 days; untreated plants 90% infected
Experimental: The active compounds were prepared separately or together as a stock solution with 0.25% by weight of active compound in acetone or DMSO. 1% by weight of the emulsifier Uniperol® EL (wetting agent with an emulsifying and dispersing action based on ethoxylated alkylphenols) was added to this solution and appropriately diluted with water to the desired concentration. Use example 2—Activity in 1 day protective application against net blotch of barley caused by Pyrenophora teres Leaves of pot-grown barley seedlings were sprayed to runoff point with an aqueous suspension in the active compound concentration given below. 24 hours after the spray coating had dried on, the test plants were inoculated with an aqueous suspension of spores of Pyrenophora [syn. Drechslera] teres, the causative agent of net blotch. The test plants were subsequently placed in a greenhouse at temperatures of between 20 and 24° C. and a relative atmospheric humidity of 95 to 100%. After 6 days, the extent of development of the disease was determined visually in % of infection of the total leaf area.

SMILES | extent of mildew development in % of infection of the cotyledon area (Sphaerotheca fuliginea) | extent of development of the disease in % of infection of the total leaf area (Pyrenophora teres)
CC1CCN(c2c(-c3c(F)cc(F)cc3F)c(C#N)nc3ncnn23)CC1 [Compound I-2, 5-cyano-6-(2,4,6-trifluorophenyl)-7-(4-methylpiperidinyl)[1,2,4]triazolo[1,5a]pyrimidine] | no infection | no infection
COc1nc2ncnn2c(N2CCC(C)CC2)c1-c1c(F)cc(F)cc1F [Compound I-5, 5-methoxy-6-(2,4,6-trifluorophenyl)-7-(4-methylpiperidinyl)[1,2,4]triazolo[1,5a]pyrimidine] | no infection | no infection

Reference: US20070149515A1, “6-(2,4,6-Trifluorophenyl)-triazolopyrimidines, method for the production thereof, use thereof for controlling harmful fungi, and substances containing the same” (BASF Aktiengesellschaft, priority 2003, published 2007)
